Assay results published in patent US20040014637A1, “Mechanism for the inactivation of insulin receptor and uses in the treatment of type II diabetes” (McGill University, priority 1998, published 2004).

Columns and labels:
[1] = molecular target: T1, insulin receptor (Rattus norvegicus, UniProt P15127); experiment: 125I-insulin binding after preincubating endosomes (ENs containing IR) with nucleotides; conditions: for 125I-insulin specific binding, WGA-purified endosomes / 125I-insulin specific binding, solubilized endosomes: preincubation 37° C. 15 min; for 125I-Insulin specific binding (%), Solubilized endosomes / 125I-Insulin specific binding (%), WGA-purified endosomes: Table 2, normalized to endosomes without nucleotide
T1 construct: from tissue; host or cells: rat liver; endosome (EN) and plasma membrane (PM) fractions
Method: Rats were anaesthetized with ether and were injected via jugular vein with a dose (per 100 g body weight) of insulin (1.5 μg), or bpV(phen) (0.6 μmol), dissolved in 0.2 ml. phosphate buffered saline (pH 7.4) −0.1% BSA. […] Livers were rapidly excised, placed in ice-cold homogenizing buffer (50 mM HEPES (pH 7.4), 0.25 M sucrose, 1 mM PMSF, 1 MM MgCl2, 1 mM benzamidine) and minced before homogenization. […] These subcellular fractions have been characterized in detail both morphologically and biochemically.
After 10 min at room temperature, the reactions was terminated by spotting 50 μl aliquots on Whatman 3 MM filters.
In the present study we wished to assess whether other processes might be involved in reducing the association of intraendosomal insulin with its receptor. We examined the effect of incubating intact ENs containing IR with increasing concentrations of ATP on subsequently measured insulin and hGH binding in both solubilized and WGA-purified receptors.

[2] = molecular target: T2, insulin receptor kinase (IRK) (Rattus norvegicus, UniProt P15127); experiment: DTT-dependent reduction of endosomal IRK heterotetramer (non-reducing SDS-PAGE); assay type: biochemical; conditions: ENs incubated with 5 mM ATP, 10 mM DTT, 15 min 37° C.
T2 construct: from tissue; host or cells: rat liver; endosome (EN) and plasma membrane (PM) fractions
Method: Endosomal pellets containing IR were resuspended (500 μg protein/ml) in a final concentration of 50 mM Tris (pH 6.9), 10% glycerol and 20 mM N-ethylmaleimide. Samples were incubated at room temperature for 5 mins and then solubilized without heating in 2.3% SDS-0.05% bromophenol blue before subjecting to SDS-PAGE in the absence of reductants (Faure et al. ([…]) J. Biol. Chem. 267, 11215-11221).
The above observation raised the possibility that intraluminal events were responsible for deactivation of the endosomal IRK. This led us to investigate whether there might be a conformational change in the IRK consequent to ATP-dependent acidification. To probe this possibility we incubated ENs containing IR with ATP in the presence or absence of 10 mM DTT to assess the ease with which Type I disulfide bonds might be reduced in the heterotetrameric molecule ([…]). […] Hepatic ENs containing IR were prepared 2 mins after insulin injection (1.5 μg/100 g body weight) and were incubated for 15 min at 37° C. in the absence or presence of 10 mM DTT and 5 mM ATP. The ENs were centrifuged and the pellets resuspended and treated as described above. Samples were applied without heating to SDS-PAGE (gradient resolving gel, 3-10% acrylamide) in the absence of reductant. […]

[3] = molecular target: T3, insulin receptor kinase (IRK) β-subunit (Rattus norvegicus, UniProt P15127); experiment: 2-D phosphoamino acid analysis of the IRK β-subunit; assay type: biochemical; conditions: ENs incubated with 1 or 5 mM γ-32P ATP, 15 min 37° C.
T3 construct: from tissue; host or cells: rat liver; endosome (EN) and plasma membrane (PM) fractions
Method: ENs containing IR were removed from the 0.6/1.0 M sucrose interface of the gradient used in endosomal purification, and diluted with 0.25 M sucrose to a final protein concentration of 50 μg/ml. A 30 ml aliquot was centrifuged at 200,000×gav for 40 mins prior to resuspending in 500 μl of cell-free system buffer (44 mM HEPES (pH 7.4), 0.55 M sucrose, 333 mM KCl, 11 mM NaCl, 11 mM MgCl2). Incubations were initiated by adding 500 μl of 10 mM Tricine buffer containing either 2 or 10 mM ATP at a specific activity of 0.5 mCi ^32P/mmol. After incubating for 15 min at 37° C. the reaction was stopped by adding an equal volume of ice-cold 20 mM HEPES, 0.25 M sucrose, 2 mM PMSF, 2 mM benzamidine, 4 mM Na orthovanadate and 80 mM Na fluoride. […]
Previous work has shown that serine/threonine phosphorylation of the β-subunit of the IRK results in an inhibition of IRK activity. We thus determined if incubating ENs containing IR with 5 mM ATP promotes the phosphorylation of IRK on serine and threonine residues. […]

T1 sequence (P15127 27-759 limits assumed): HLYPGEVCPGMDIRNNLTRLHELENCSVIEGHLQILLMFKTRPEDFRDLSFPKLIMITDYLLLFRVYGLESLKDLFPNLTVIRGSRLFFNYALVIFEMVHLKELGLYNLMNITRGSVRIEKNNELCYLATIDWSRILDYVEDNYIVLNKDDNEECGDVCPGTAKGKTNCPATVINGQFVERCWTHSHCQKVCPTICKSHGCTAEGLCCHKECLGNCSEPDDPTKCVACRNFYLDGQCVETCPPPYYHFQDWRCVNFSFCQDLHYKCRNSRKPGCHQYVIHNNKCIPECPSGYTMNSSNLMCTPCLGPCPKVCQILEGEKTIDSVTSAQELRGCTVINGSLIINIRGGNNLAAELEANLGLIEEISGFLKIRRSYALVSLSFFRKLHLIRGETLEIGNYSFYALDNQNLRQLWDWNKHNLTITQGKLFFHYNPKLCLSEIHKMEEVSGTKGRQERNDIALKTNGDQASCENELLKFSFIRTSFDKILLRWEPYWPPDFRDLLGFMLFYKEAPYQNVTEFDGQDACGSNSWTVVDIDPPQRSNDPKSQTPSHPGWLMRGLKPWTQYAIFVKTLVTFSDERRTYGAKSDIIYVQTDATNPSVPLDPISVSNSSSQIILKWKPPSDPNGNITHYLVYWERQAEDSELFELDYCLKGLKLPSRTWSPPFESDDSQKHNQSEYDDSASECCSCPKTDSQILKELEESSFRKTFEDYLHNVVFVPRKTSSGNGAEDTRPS
T1 sequence (P15127 764-1383 limits assumed): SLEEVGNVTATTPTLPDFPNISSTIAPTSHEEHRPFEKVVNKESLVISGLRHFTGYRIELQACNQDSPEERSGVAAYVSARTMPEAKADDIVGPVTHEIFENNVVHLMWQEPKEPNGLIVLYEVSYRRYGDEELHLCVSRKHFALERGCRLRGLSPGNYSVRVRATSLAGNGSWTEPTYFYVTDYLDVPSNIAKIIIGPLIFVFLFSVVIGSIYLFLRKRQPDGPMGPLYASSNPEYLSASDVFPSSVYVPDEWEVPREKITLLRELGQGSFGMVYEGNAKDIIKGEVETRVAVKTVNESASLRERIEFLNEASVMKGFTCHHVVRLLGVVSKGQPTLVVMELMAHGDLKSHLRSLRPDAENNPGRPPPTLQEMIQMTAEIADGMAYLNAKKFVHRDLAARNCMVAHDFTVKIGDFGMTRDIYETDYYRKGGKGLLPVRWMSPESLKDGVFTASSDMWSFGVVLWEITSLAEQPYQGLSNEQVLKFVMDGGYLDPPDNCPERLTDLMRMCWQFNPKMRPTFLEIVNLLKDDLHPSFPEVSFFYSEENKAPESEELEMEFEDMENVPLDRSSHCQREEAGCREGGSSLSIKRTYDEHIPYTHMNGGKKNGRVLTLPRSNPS
T2 sequence (P15127 27-759 limits assumed): as the sequence (P15127 27-759 limits assumed) above
T2 sequence (P15127 764-1383 limits assumed): as the sequence (P15127 764-1383 limits assumed) above
T3 sequence (P15127 27-759 limits assumed): as the sequence (P15127 27-759 limits assumed) above
T3 sequence (P15127 764-1383 limits assumed): as the sequence (P15127 764-1383 limits assumed) above

Nc1ncnc2c1ncn2[C@@H]1O[C@H](COP(=O)(O)OP(=O)(O)OP(=O)(O)O)[C@@H](O)[C@H]1O [ATP, adenosine 5′triphosphate]
125I-insulin specific binding, WGA-purified endosomes ([1]; ATP 0.1 mM, percent of control): 107.7 ± 1.5% | 125I-insulin specific binding, solubilized endosomes ([1]; ATP 0.1 mM, percent of control ENs without ATP): 103.6 ± 2.5% | 125I-insulin specific binding, WGA-purified endosomes ([1]; ATP 1 mM, percent of control): 123.9 ± 6.2% | 125I-insulin specific binding, solubilized endosomes ([1]; ATP 1 mM, percent of control): 90.9 ± 4.2% | 125I-insulin specific binding, WGA-purified endosomes ([1]; ATP 3 mM, percent of control): 99.3 ± 0.9% | 125I-insulin specific binding, solubilized endosomes ([1]; ATP 3 mM, percent of control): 96.7 ± 2.6% | 125I-insulin specific binding, WGA-purified endosomes ([1]; ATP 5 mM, percent of control): 52.1 ± 1.2% | 125I-insulin specific binding, solubilized endosomes ([1]; ATP 5 mM, percent of control): 84.2 ± 2.7% | 125I-insulin specific binding, WGA-purified endosomes ([1]; ATP 10 mM, percent of control): 8.4 ± 0.2% | 125I-Insulin specific binding (%), Solubilized endosomes ([1]; addition 0.1 mM, 37° C. 15 min): 103.4 ± 2.5% | 125I-Insulin specific binding (%), WGA-purified endosomes ([1]; addition 0.1 mM, 37° C. 15 min): 108.1 ± 2.0% | 125I-Insulin specific binding (%), Solubilized endosomes ([1]; addition 1 mM, 37° C. 15 min): 95.5 ± 14.2% | 125I-Insulin specific binding (%), WGA-purified endosomes ([1]; addition 1 mM, 37° C. 15 min): 92.2 ± 2.2% | 125I-Insulin specific binding (%), Solubilized endosomes ([1]; addition 10 mM at 4° C. (on ice)): 112.0 ± 3.3% | 125I-Insulin specific binding (%), Solubilized endosomes ([1]; addition 10 mM, 37° C. 15 min): 43.6 ± 6.3% | 125I-Insulin specific binding (%), WGA-purified endosomes ([1]; addition 10 mM, 37° C. 15 min): 25.2 ± 5.2% | Ability of DTT to reduce tetrameric IRK molecules (FIG. 8) [2]: significantly decreased | 32P phosphoserine in IRK β-subunit (FIG. 5) [3]: no detectable
